For the test, the target named is T1, CTNNB1/TCF complex (Homo sapiens, UniProt P35222, DEL45-45).
T1 construct: endogenous in cells; host or cells: HCT116 nuclear extract
T1 sequence (P35222 1-781): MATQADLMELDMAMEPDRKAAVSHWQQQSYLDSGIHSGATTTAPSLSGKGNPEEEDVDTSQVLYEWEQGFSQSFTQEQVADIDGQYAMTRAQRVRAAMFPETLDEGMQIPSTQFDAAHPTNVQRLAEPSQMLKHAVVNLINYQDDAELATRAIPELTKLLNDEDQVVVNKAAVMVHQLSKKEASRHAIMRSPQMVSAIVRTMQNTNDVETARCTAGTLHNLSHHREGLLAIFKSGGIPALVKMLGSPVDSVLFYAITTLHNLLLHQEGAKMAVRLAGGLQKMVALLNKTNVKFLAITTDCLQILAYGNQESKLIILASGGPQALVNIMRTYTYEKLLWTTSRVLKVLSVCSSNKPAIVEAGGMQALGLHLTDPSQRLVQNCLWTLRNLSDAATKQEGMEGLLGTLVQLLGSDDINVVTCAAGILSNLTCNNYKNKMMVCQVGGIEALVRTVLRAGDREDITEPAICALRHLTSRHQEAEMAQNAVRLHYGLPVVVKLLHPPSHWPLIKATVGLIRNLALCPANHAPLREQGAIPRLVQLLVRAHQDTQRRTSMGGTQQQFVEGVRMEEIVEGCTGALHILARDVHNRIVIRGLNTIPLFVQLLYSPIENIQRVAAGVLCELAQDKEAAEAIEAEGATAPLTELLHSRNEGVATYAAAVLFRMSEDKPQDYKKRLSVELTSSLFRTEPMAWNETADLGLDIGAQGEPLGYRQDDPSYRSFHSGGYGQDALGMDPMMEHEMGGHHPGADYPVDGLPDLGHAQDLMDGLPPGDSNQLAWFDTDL
T1 sequence (P35222 with tags, fused parts or gaps DEL45-45): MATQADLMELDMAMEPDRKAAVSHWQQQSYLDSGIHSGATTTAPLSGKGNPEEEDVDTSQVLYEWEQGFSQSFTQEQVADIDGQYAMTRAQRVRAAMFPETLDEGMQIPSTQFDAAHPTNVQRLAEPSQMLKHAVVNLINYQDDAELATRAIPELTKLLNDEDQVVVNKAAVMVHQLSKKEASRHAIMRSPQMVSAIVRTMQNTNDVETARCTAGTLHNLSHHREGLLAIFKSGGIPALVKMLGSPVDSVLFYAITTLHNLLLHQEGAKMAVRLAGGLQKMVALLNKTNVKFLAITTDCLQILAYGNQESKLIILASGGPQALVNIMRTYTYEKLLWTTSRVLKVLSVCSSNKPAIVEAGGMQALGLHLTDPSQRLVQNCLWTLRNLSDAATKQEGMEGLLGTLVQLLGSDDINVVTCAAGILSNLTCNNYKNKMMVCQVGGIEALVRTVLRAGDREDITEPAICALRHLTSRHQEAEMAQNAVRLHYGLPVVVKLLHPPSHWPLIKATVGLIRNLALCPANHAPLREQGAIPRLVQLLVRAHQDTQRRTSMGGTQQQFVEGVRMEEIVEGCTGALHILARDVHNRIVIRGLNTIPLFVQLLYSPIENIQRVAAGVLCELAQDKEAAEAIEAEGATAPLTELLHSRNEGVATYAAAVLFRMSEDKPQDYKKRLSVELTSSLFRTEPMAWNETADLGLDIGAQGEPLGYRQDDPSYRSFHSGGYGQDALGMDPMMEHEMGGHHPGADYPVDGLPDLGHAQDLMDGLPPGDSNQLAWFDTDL
In words: Electrophoretic mobility shift assay (EMSA), TCF-binding site of the S100A4 promoter. The class given is cell-based. The procedure:
Electrophoretic mobility shift assay (EMSA) was performed as described earlier (4). 5×10^6 HCT116 cells were plated into a 10 cm culture dish and were given 15 hour to attach to the bottom of the dish. Cells were treated with 0.1, 0.3, 0.6 or 1 μM niclosamide or the respective amount of DMSO for 24 hours. For each condition 5 μg nuclear extracted protein was incubated 30 minutes at room temperature with 0.05% w/v poly dI⋅dC, 0.5 mM Tris, 0.05 mM EDTA, 2.5% v/v glycerol, 0.2% v/v NP-40, 5 mM MgCl2 and double-stranded biotinylated oligonucleotides (sense 5′-[…]-3′, antisense 3′-[…] T-5′) encompassing the TCF-binding site of the S100A4 promoter. For supershift 1.25 μg monoclonal CTNNB1 antibody (BD Biosciences) was added. […]
For WNT pathway analysis the following cells were applied: HCT116 cells (heterozygous for gain-of-function-mutated CTNNB1; wt/mut), HAB-68mut cells (deletion mutant of HCT116, expressing only gain-of-function-mutated CTNNB1: −/mut) and HAB-92 wt cells (deletion mutant of HCT116, expressing only wild-type CTNNB1: wt/−). […] Reporter gene expression was determined by luciferase activity measurement. […] S100A4 expression was analyzed by qRT-PCR and immunoblot. […] Cells were treated with 1 μM niclosamide for 24 hours and cell migration was determined by Boyden chamber assay. […] Differences were analyzed by Student's t test (n.s.; not statistically significant). […]
Background: In EMSA bound probe runs differently from free probe, usually more slowly.

`O=C(Nc1ccc([N+](=O)[O-])cc1Cl)c1cc(Cl)ccc1O` [niclosamide, 2′,5-dichloro-4′-nitrosalicylanilide]: the “supershift with monoclonal anti-CTNNB1” value (nuclear extracts from 1 μM niclosamide-treated HCT116 cells) is “No supershift could be detected”. Moreover, under “nuclear extracts of HCT116 cells, increasing concentrations (0.1, 0.3, 0.6 or 1 μM)”, the CTNNB1/TCF/oligo complex entry is reported as “interrupted the CTNNB1/TCF/oligo complex in a concentration-dependent manner”.

The values are drawn from US11331290B2, “Niclosamide for the treatment of cancer metastasis” (Max-Delbrück-Centrum für Molekulare Medizin in der …, priority 2011, dated 2022).
